Series [1] in a line: logP determination by HPLC (EEC directive 79/831 Annex V. A8). The class given is physicochemical. To be noted: gradient method, acetonitrile/0.1% aqueous phosphoric acid, preparation examples. The method, then:
The logP values were determined in accordance with EEC directive 79/831 Annex V. A8 by HPLC (gradient method, acetonitrile/0.1% aqueous phosphoric acid) […]

Another series deals with Puccinia recondita. The experiment in a line: Puccinia test (wheat)/protective. The class given is in vivo. The note with it: protective, application rate 100 g/ha, evaluation 10 days after inoculation, 0% = control, 100% = no infection. How it is done: Puccinia test (wheat)/protective
To produce a suitable preparation of active compound, 1 part by weight of active compound is mixed with the stated amounts of solvent and emulsifier, and the concentrate is diluted with water to the desired concentration.
To test for protective activity, young plants are sprayed with the preparation of active compound at the stated application rate. After the spray coating has dried, the plants are sprayed with a conidia suspension of Puccinia recondita. The plants remain in an incubation cabin at 20° C. and 100% relative atmospheric humidity for 48 hours.
The plants are then placed in a greenhouse at a temperature of about 20° C. and a relative atmospheric humidity of 80% to promote the development of rust pustules.
Evaluation is carried out 10 days after the inoculation. 0% means an efficacy which corresponds to that of the control, whereas an efficacy of 100% means that no infection is observed.

Bounds are passed on as bounds.

Take `CON=C(C(=O)OC)c1ccccc1CSc1ccn(-c2ccc(Br)cc2)n1` [Example 2, methyl [2-({[1-(4-bromophenyl)-1H-pyrazol-3-yl]sulphanyl}methyl)phenyl](methoxyimino)acetate]: the chromatographic logP in series [1] came to 4.07.

Regarding `CON=C(C1=NOCCO1)c1ccccc1CSc1ccn(-c2ccc(Cl)cc2)n1` [Example 1, [2-({[1-(4-chlorophenyl)-1H-pyrazol-3-yl]sulphanyl}methyl)phenyl](5,6-dihydro-1,4,2-dioxazin-3-yl)methanone O-methyloxime], in series [1], the chromatographic logP stood at 3.69. In the series with Puccinia recondita, this molecule yielded an efficacy of no less than 98%.

In turn, `CNC(=O)C(=NOC)c1ccccc1CSc1ccn(-c2ccc(Br)cc2)n1` [Example 3, N-methyl-[2-( {[1-(4-bromophenyl)-1H-pyrazol-3-yl]sulphanyl}methyl)phenyl]-(methoxyimino)acetamide] showed a chromatographic logP in series [1] of 3.5.

By chromatographic logP is commonly meant a lipophilicity value derived from retention on a column. Low readings indicate lower lipophilicity, high ones higher lipophilicity.

(Values after US20030125325A1, “Pyrazolyl benzyl thioethers” (priority 2001, published 2003).)
